“Also recorded” adds a separate entry of the source.
Tests used:
Assay type in all cases: cell-based, human
[1] = tested on: HL-60 cells; test: Fura-2 measurement of agonist-induced calcium mobilization with and without BAPTA, media without calcium
From the text: (§1) Cell culture—Non-transformed HL-60 and Jurkat cells were obtained from and cultured as recommended by American Type Culture Collection (ATCC, Rockville, Md.) as previously described (Beebe, S. J., et al. (2002). IEEE Trans. Plasma Sci. 30:1 Part 2, 286-292; Beebe, S. J., et al. (2003). FASEB J. 17, 1493-1495). Cells were removed from log phase growth and suspended in Hanks Balanced Salt Solution (HBSS) in the presence or absence of Ca^2+ and Mg^2+. When calcium was omitted, cells were washed several times in buffer without added calcium. In other experiments, the calcium chelator BAPTA was added to chelate intracellular calcium. Cells were loaded with BAPTA-AM and washed in HBSS before the addition of agonists.
To be certain that BAPTA was able to chelate all intracellular calcium, two agents that mobilize calcium by two different mechanisms were used and the calcium concentration in the cell was directly measured using the fluorescent calcium indicator fura-2. Cells were loaded with Fura2 and BAPTA and tested in media without calcium. The first agonist tested was the purinergic agonist ATP, which leads to the release of intracellular calcium through a phospholipase C— and IP3-mediated mechanism through the IP3 receptor in the endoplasmic reticulum (Berridge, M. J. et al. (1998) Nature 395, 645-648). This is followed by an influx of calcium through store-operated calcium channels in the plasma membrane. […] The second agonist tested was cyclopiazonic acid (CPA), which causes increases in calcium by inhibiting the calcium-ATPase in the endoplasmic reticulum. This pump replenishes the intracellular calcium stores after actions by calcium-mobilizing agents. […] Thus, BAPTA inhibited rapid and transient as well as slow and sustained calcium mobilization by agents that acted on a plasma membrane receptor and an endoplasmic reticulum calcium pump.

[2] = tested on: Jurkat cells; test: Caspase activation (z-VAD-FITC, flow cytometry) in nsPEF-exposed, BAPTA-loaded Jurkat cells; conditions: energy density ~1.7 J/cc
Protocol: FIG. 2 describes the effect of intracellular calcium chelation by BAPTA on caspase activation in human Jurkat cells. Jurkat cells were incubated with BAPTA-AM ([…]) in Hanks Balanced salt solution (HBSS) with calcium for 30 minutes and washed in HBSS with calcium. The BAPTA loaded cells were exposed to nsPEF as indicated. The electric fields were adjusted to provide a similar energy density (˜1.7 J/cc) under all conditions. After exposure to nsPEF, the cells were incubated with a cell permeable, irreversible inhibitor of active caspases, z-VAD-FITC for 20 minutes before analysis by flow cytometry (Beebe et al., (2003) FASEB J 17, 1493-1495). The values for caspase activity are expressed as the geometric mean z-VAD-FITC fluorescence determined in 15,000 individual cells. […]
(§2) Determination of caspase activation in vivo—Caspase activity was determined in vivo using a fluorescent-labeled, irreversible caspase inhibitor, VAD-fmk-FITC (Val-Ala-Asp-fluoromethylketone labeled with fluoroisothiocyanate) that is specific for the active site of the enzyme (see Beebe et al., 2003). Briefly, cells were exposed to nsPEF, incubated in the presence of the fluorescent caspase inhibitor for 20 minutes, washed to remove background fluorescence and subjected to flow cytometry. Values are expressed as the geometric mean FITC fluorescence. […]

[3] = tested on: HL-60 cells; test: Caspase activation (z-VAD-FITC, flow cytometry) in nsPEF-exposed, BAPTA-loaded HL-60 cells; conditions: pulses at 10, 60 and 300 ns, equalized energy density
Protocol: Experiments with HL-60 cells in the presence and absence of BAPTA cells were carried out as described for Jurkat cells in FIG. 2 (n=4).
as §1, with “Cells were loaded with BAPTA-AM and washed in HBSS before the addition of agonists.” left out
as §2

[4] = tested on: HL-60 cells; test: Fluorometric analysis (fura-2) of intracellular free calcium [Ca2+]i in HL-60 cells; conditions: for change in [Ca2+]i: 0.1 μM
Protocol: Cell culture-Non-transformed HL-60 cells were used for this study and were obtained from American Type Culture Collection (ATCC, Rockville, Md.). […] 2 mM CaCl2 was added to this buffer when loading cells with fluorescent indicators unless otherwise stated. In some experiments extracellular calcium was omitted by washing the cells several times in the same physiological buffer without added calcium. […] Post pulse, the cell suspension was removed from the pulsing cuvette and assayed. Fluorometric Analysis of Internal Calcium Response-To analyze the response of a greater number of cells, the fluorescent indicator fura-2 (Molecular Probes, Eugene, Oreg.) was used with a fluorometer. HL-60 cells were incubated with fura-2/AM (2 μM) in the physiological buffer described above containing 2 mM calcium for 45 minutes at 37° C. The cells were then washed and resuspended in calcium-free or calcium-containing buffer at a concentration of 7.7×10^6 cells/ml. […] Pulser® cuvettes could not be used to perform calcium measurements in the fluorometer because of the aluminum plates, which act to block either the excitation light or the emission light depending on the placement of the cuvette in the fluorometer. Therefore, the cells were first placed in the fluorometer cuvette, to obtain a baseline reading, cells were then removed from the fluorometer cuvette with a Pasteur pipette and added to the Pulser® cuvette.

[5] = cells loaded with Fura2 and BAPTA

Compound: Nc1ncnc2c1ncn2[C@@H]1O[C@H](COP(=O)(O)OP(=O)(O)OP(=O)(O)O)[C@@H](O)[C@H]1O [ATP]
- calcium mobilization (fura-2) ([1]; absence of BAPTA): rapid and transient increase

Compound: O=C(O)CN(CC(=O)O)c1ccccc1OCCOc1ccccc1N(CC(=O)O)CC(=O)O [BAPTA]
- effect on nsPEF-induced caspase activation ([2]; pulses at 10 and 60 ns): no significant effect
- reduction of nsPEF-induced caspase activity ([2]; pulses with 300 ns durations): about 25%
- effect on nsPEF-induced caspase activity [3]: did not significantly affect
- effect on ATP-induced calcium mobilization [1, 5]: completely inhibited
- effect on CPA-mediated calcium mobilization [1, 5]: completely inhibited

Compound: O=c1ccn([C@@H]2O[C@H](COP(=O)(O)OP(=O)(O)OP(=O)(O)O)[C@@H](O)[C@H]2O)c(=O)[nH]1 [UTP]
- [Ca2+]i on addition of 1.0 mM calcium to treated cells (capacitative calcium entry) ([4]; 10 μM UTP in low calcium-containing buffer, then 1.0 mM calcium added): rapid rise
- reduction of peak [Ca2+]i effect when added after one 60 ns 15 kV/cm pulse ([4]; 10 μM, extracellular calcium deficient, vs UTP added before a pulse): approximately 60%
- increase in [Ca2+]i ([4]; 10 μM, extracellular calcium present): approximately 300 nM
- effect on [Ca2+]i compared with 10 μM ([4]; 100 μM, extracellular calcium present): did not produce any larger effect
- effect on [Ca2+]i as % of that seen with 10 μM UTP ([4]; 0.1 M (so in the source), extracellular calcium present): approximately 20%
- increase in [Ca2+]i ([4]; absence of extracellular calcium, transient): approximately 50 nM
- [Ca2+]i increase by one 15 kV/cm pulse after the agonist, as % of pulse before agonist addition ([4]; extracellular calcium deficient): approximately 25%
- reduction of [Ca2+]i increase by one 15 kV/cm pulse given after the agonist ([4]; extracellular calcium present): approximately 65%
- reduction of [Ca2+]i effect when added after one 15 kV/cm pulse ([4]; extracellular calcium present, vs UTP by itself): approximately 60%

Compound: COc1ccc([C@@H]2Sc3ccccc3N(CCN(C)C)C(=O)[C@@H]2OC(C)=O)cc1 [diltiazem]
- effect on nsPEF-induced increases in [Ca2+]i ([4]; HL-60 cells): no effect

Compound: C/C=C(/C)C(=O)O[C@H]1C(C)=C2[C@H]([C@@H]1OC(=O)CCCCCCC)[C@@](C)(OC(C)=O)C[C@H](OC(=O)CCC)[C@@]1(O)[C@H]2OC(=O)[C@@]1(C)O [thapsigargin]
- [Ca2+]i response when added after one 15 kV/cm pulse ([4]; 0.1 μM at approximately 50 seconds, 1 mM extracellular calcium): did not increase
- change in [Ca2+]i ([4]; extracellular calcium absent): smaller and more transient increase
- change in [Ca2+]i ([4]; extracellular calcium present): prolonged increase; also recorded: gradual and sustained increase
- reduction of [Ca2+]i increase by one 15 kV/cm pulse given after the agonist ([4]; extracellular calcium present): approximately 85%
